Columns and labels:
[1] = tested on: Malassezia furfur; assay: In-vitro effect on microbial strains: population count over 28 days, Malassezia furfur; type: cell-based; conditions: for Number of colony-forming strains after: 24 h / Number of colony-forming strains after: 7 days / Number of colony-forming strains after: 14 days / Number of colony-forming strains after: 21 days / Number of colony-forming strains after: 28 days: inoculum 1.5 × 10^4, 22° C.
Description: (§1) The samples are prepared under sterile conditions and deposited in microplates (2-ml wells) with the concentrations hereunder. Two analysis controls were carried out: • a positive control corresponding to 0.5% Phenonip®; • a negative control consisting of 0.85% physiological saline solution. Samples and controls are contaminated with three bacterial strains, namely Staphylococcus epidermidis, Corynebacterium xerosis, and Propionobacterium acnes, at a rate of approximately […] to 4.15×10^5 colony-forming units per milliliter, denoted cfu/ml; and a fungal strain, namely Malassezia furfur, at a rate of approximately 1.50×104 to 3.80×10^4 cfu/ml. After contamination, the samples are carefully mixed by suction and discharge cycles in order to ensure a uniform distribution of the microorganism. The whole is incubated at 22° C. during 28 days. The microbial population is sampled and counted at 24 hours and 7, 14, 21 and 28 days for each microbial strain. The contaminated samples are collected and then deposited in serial dilutions in microtiter plates, in the presence of culture medium, which is a saline solution with 0.85% sodium chloride, and a dehydrogenase activity indicator reagent, which is 2,3,5-triphenyltetrazolium chloride (denoted TTC). The results are presented in the following pages with the variation of the microbial population over the 28 days of study, for the tested microbial strain. The measurements of microbial populations in the samples collected at each time, are carried out according to the following microtiter method, for one sample collection. In the 96 wells with a volume of 250 μL of a microtiter plate, 20 μL of the collected sample are diluted by a factor of 10 by dispersion in 180 μL of Letheen broth (Difco, ref. 268110) containing 1.5% of Tween 80 (Sigma, ref. […]) and TTC (Sigma, ref. […]). The microplate is incubated for 48 hours at 32.5° C., and the growth of the microorganisms is monitored by the color change, from colorless to red/pink. The highest reciprocal dilution indicating a growth makes it possible to determine the log number of each microorganism at each time. The measurements of microbial populations taken at each collection time are expressed as colony forming units/ml.

[2] = tested on: Staphylococcus aureus; conditions: U.S. Pat. No. 9,295,626, col. 27, Table 2; cited from earlier work
[3] = tested on: Aspergillus brasiliensis; conditions: U.S. Pat. No. 9,295,626, col. 27, Table 2; cited from earlier work
[4] = tested on: Corynebacterium xerosis; assay: In-vitro effect on microbial strains: population count over 28 days, Corynebacterium xerosis; type: cell-based; conditions: for Number of colony-forming strains after: 24 h / Number of colony-forming strains after: 7 days / Number of colony-forming strains after: 14 days / Number of colony-forming strains after: 21 days / Number of colony-forming strains after: 28 days: inoculum 3.2 × 10^5, 22° C.
Description: as §1

[5] = tested on: Propionobacterium acnes; assay: In-vitro effect on microbial strains: population count over 28 days, Propionobacterium acnes; type: cell-based; conditions: for Number of colony-forming strains after: 24 h / Number of colony-forming strains after: 7 days / Number of colony-forming strains after: 14 days / Number of colony-forming strains after: 21 days / Number of colony-forming strains after: 28 days: inoculum 3.98 × 10^5, 22° C.
Description: as §1

[6] = tested on: Staphylococcus epidermidis; assay: In-vitro effect on microbial strains: population count over 28 days, Staphylococcus epidermidis; type: cell-based; conditions: for Number of colony-forming strains after: 24 h / Number of colony-forming strains after: 7 days / Number of colony-forming strains after: 14 days / Number of colony-forming strains after: 21 days / Number of colony-forming strains after: 28 days: inoculum 1.43 × 10^5, 22° C.
Description: as §1

[7] = tested on: Candida albicans; conditions: U.S. Pat. No. 9,295,626, col. 27, Table 2; cited from earlier work
[8] = after 24 hours, doses 1%, 5%, 9%
[9] = after 24 hours, the three doses tested (1%, 5%, 9%)

SMILES: O[C@@H]1CO[C@H]2[C@@H]1OC[C@@H]2O [isosorbide, 1,4-3,6-dianhydrosorbitol]
- colony-forming strains observed [1, 8]: no colony-forming strain is observed
- Number of colony-forming strains after: 24 h ([1]; isosorbide dose 1%): 0 colony forming units/ml
- Number of colony-forming strains after: 7 days ([1]; isosorbide dose 1%): 0 colony forming units/ml
- Number of colony-forming strains after: 14 days ([1]; isosorbide dose 1%): 0 colony forming units/ml
- Number of colony-forming strains after: 21 days ([1]; isosorbide dose 1%): 0 colony forming units/ml
- Number of colony-forming strains after: 28 days ([1]; isosorbide dose 1%): 0 colony forming units/ml
- Number of colony-forming strains after: 24 h ([1]; isosorbide dose 5%): 0 colony forming units/ml
- Number of colony-forming strains after: 7 days ([1]; isosorbide dose 5%): 0 colony forming units/ml
- Number of colony-forming strains after: 14 days ([1]; isosorbide dose 5%): 0 colony forming units/ml
- Number of colony-forming strains after: 21 days ([1]; isosorbide dose 5%): 0 colony forming units/ml
- Number of colony-forming strains after: 28 days ([1]; isosorbide dose 5%): 0 colony forming units/ml
- Number of colony-forming strains after: 24 h ([1]; isosorbide dose 9%): 0 colony forming units/ml
- Number of colony-forming strains after: 7 days ([1]; isosorbide dose 9%): 0 colony forming units/ml
- Number of colony-forming strains after: 14 days ([1]; isosorbide dose 9%): 0 colony forming units/ml
- Number of colony-forming strains after: 21 days ([1]; isosorbide dose 9%): 0 colony forming units/ml
- Number of colony-forming strains after: 28 days ([1]; isosorbide dose 9%): 0 colony forming units/ml
- effect on the strain in words ([1]; summary of Table 2): bactericide
- minimum inhibitory concentration [2]: 10%
- minimum inhibitory concentration [3]: 10%
- reduction of the number of colony-forming strains [4, 9]: at least 3 log 10
- colony-forming strains observed ([4]; after 7 days): no more colony-forming strains
- Number of colony-forming strains after: 24 h ([4]; isosorbide dose 1%): 4 × 10^2 colony forming units/ml
- Number of colony-forming strains after: 7 days ([4]; isosorbide dose 1%): 0 colony forming units/ml
- Number of colony-forming strains after: 14 days ([4]; isosorbide dose 1%): 0 colony forming units/ml
- Number of colony-forming strains after: 21 days ([4]; isosorbide dose 1%): 0 colony forming units/ml
- Number of colony-forming strains after: 28 days ([4]; isosorbide dose 1%): 0 colony forming units/ml
- Number of colony-forming strains after: 24 h ([4]; isosorbide dose 5%): 1 × 10^2 colony forming units/ml
- Number of colony-forming strains after: 7 days ([4]; isosorbide dose 5%): 0 colony forming units/ml
- Number of colony-forming strains after: 14 days ([4]; isosorbide dose 5%): 0 colony forming units/ml
- Number of colony-forming strains after: 21 days ([4]; isosorbide dose 5%): 0 colony forming units/ml
- Number of colony-forming strains after: 28 days ([4]; isosorbide dose 5%): 0 colony forming units/ml
- Number of colony-forming strains after: 7 days ([4]; isosorbide dose 9%): 0 colony forming units/ml
- Number of colony-forming strains after: 14 days ([4]; isosorbide dose 9%): 0 colony forming units/ml
- Number of colony-forming strains after: 21 days ([4]; isosorbide dose 9%): 0 colony forming units/ml
- Number of colony-forming strains after: 28 days ([4]; isosorbide dose 9%): 0 colony forming units/ml
- effect on the strain in words ([4]; summary of Table 3): moderate bactericide
- colony-forming strains observed [5, 8]: no colony-forming strain is observed
- Number of colony-forming strains after: 24 h ([5]; isosorbide dose 1%): 0 colony forming units/ml
- Number of colony-forming strains after: 7 days ([5]; isosorbide dose 1%): 0 colony forming units/ml
- Number of colony-forming strains after: 14 days ([5]; isosorbide dose 1%): 0 colony forming units/ml
- Number of colony-forming strains after: 21 days ([5]; isosorbide dose 1%): 0 colony forming units/ml
- Number of colony-forming strains after: 28 days ([5]; isosorbide dose 1%): 0 colony forming units/ml
- Number of colony-forming strains after: 24 h ([5]; isosorbide dose 5%): 0 colony forming units/ml
- Number of colony-forming strains after: 7 days ([5]; isosorbide dose 5%): 0 colony forming units/ml
- Number of colony-forming strains after: 14 days ([5]; isosorbide dose 5%): 0 colony forming units/ml
- Number of colony-forming strains after: 21 days ([5]; isosorbide dose 5%): 0 colony forming units/ml
- Number of colony-forming strains after: 28 days ([5]; isosorbide dose 5%): 0 colony forming units/ml
- Number of colony-forming strains after: 24 h ([5]; isosorbide dose 9%): 0 colony forming units/ml
- Number of colony-forming strains after: 7 days ([5]; isosorbide dose 9%): 0 colony forming units/ml
- Number of colony-forming strains after: 14 days ([5]; isosorbide dose 9%): 0 colony forming units/ml
- Number of colony-forming strains after: 21 days ([5]; isosorbide dose 9%): 0 colony forming units/ml
- Number of colony-forming strains after: 28 days ([5]; isosorbide dose 9%): 0 colony forming units/ml
- effect on the strain in words ([5]; summary of Table 1): bactericide
- reduction of the number of colony-forming strains [6, 9]: at least 2 log 10
- colony-forming strains observed ([6]; after 7 days): no more colony-forming strains
- Number of colony-forming strains after: 24 h ([6]; isosorbide dose 1%): 4 × 10^3 colony forming units/ml
- Number of colony-forming strains after: 7 days ([6]; isosorbide dose 1%): 0 colony forming units/ml
- Number of colony-forming strains after: 14 days ([6]; isosorbide dose 1%): 0 colony forming units/ml
- Number of colony-forming strains after: 21 days ([6]; isosorbide dose 1%): 0 colony forming units/ml
- Number of colony-forming strains after: 28 days ([6]; isosorbide dose 1%): 0 colony forming units/ml
- Number of colony-forming strains after: 24 h ([6]; isosorbide dose 5%): 1 × 10^3 colony forming units/ml
- Number of colony-forming strains after: 7 days ([6]; isosorbide dose 5%): 0 colony forming units/ml
- Number of colony-forming strains after: 14 days ([6]; isosorbide dose 5%): 0 colony forming units/ml
- Number of colony-forming strains after: 21 days ([6]; isosorbide dose 5%): 0 colony forming units/ml
- Number of colony-forming strains after: 28 days ([6]; isosorbide dose 5%): 0 colony forming units/ml
- Number of colony-forming strains after: 24 h ([6]; isosorbide dose 9%): 7 × 10^2 colony forming units/ml
- Number of colony-forming strains after: 7 days ([6]; isosorbide dose 9%): 0 colony forming units/ml
- Number of colony-forming strains after: 14 days ([6]; isosorbide dose 9%): 0 colony forming units/ml
- Number of colony-forming strains after: 21 days ([6]; isosorbide dose 9%): 0 colony forming units/ml
- Number of colony-forming strains after: 28 days ([6]; isosorbide dose 9%): 0 colony forming units/ml
- effect on the strain in words ([6]; summary of Table 4): weak bactericide
- minimum inhibitory concentration [7]: 10%

— US20220168201A1, “USE OF DIANHYDROHEXITOL FOR PRESERVING COSMETIC PREPARATIONS” (ROQUETTE FRERES, priority 2019, published 2022)
